Several values for one entry are separate records, joined by “and”; a condition that tells them apart may be missing. Equal entries are not always repeated. Toxic doses and inconclusive results are not listed. Rule as the data show it: active = T/C of 150% or more; inactive = T/C below 125%.
Tested on: L1210 leukemia ip in BDF1 mice, survival T/C
Experiment: NCI In Vivo Anticancer Drug Screen. Data for tumor model L1210 Leukemia (intraperitoneal) in B6D2F1 (BDF1) mice
Conditions: endpoint: mean survival time, higher = longer survival
In short: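 Mice bearing the transplanted tumor received compound or vehicle. Survival of the treated group was divided by that of the vehicle-treated control group to give the ratio.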

[1] = dose: 12.5 mg/kg/injection, schedule: Q01DX009 (ip), vehicle: saline with Tween-80
[2] = dose: 25.0 mg/kg/injection, schedule: Q01DX009 (ip), vehicle: saline with Tween-80
[3] = dose: 100.0 mg/kg/injection, schedule: Q01DX009 (ip), vehicle: Klucel (hydroxypropylcellulose) (HPC)
[4] = dose: 100.0 mg/kg/injection, schedule: Q04DX003 (ip), vehicle: Klucel (hydroxypropylcellulose) (HPC)
[5] = dose: 200.0 mg/kg/injection, schedule: Q01DX009 (ip), vehicle: Klucel (hydroxypropylcellulose) (HPC)
[6] = dose: 200.0 mg/kg/injection, schedule: Q04DX003 (ip), vehicle: Klucel (hydroxypropylcellulose) (HPC)
[7] = dose: 400.0 mg/kg/injection, schedule: Q01DX009 (ip), vehicle: Klucel (hydroxypropylcellulose) (HPC)
[8] = dose: 400.0 mg/kg/injection, schedule: Q04DX003 (ip), vehicle: Klucel (hydroxypropylcellulose) (HPC)
[9] = dose: 100.0 mg/kg/injection, schedule: Q01DX001 (ip), vehicle: saline
[10] = dose: 200.0 mg/kg/injection, schedule: Q01DX001 (ip), vehicle: saline
[11] = dose: 400.0 mg/kg/injection, schedule: Q01DX001 (ip), vehicle: saline

Measured: T/C

CCc1c(Nc2ccccc2C)nc(N)[nH]c1=O
inactive: dose: 100.0 mg/kg/injection, schedule: Q01DX Z (ip), vehicle: methylcellulose (MC) 100 % of control | dose: 200.0 mg/kg/injection, schedule: Q01DX Z (ip), vehicle: methylcellulose (MC) 104 % of control

COc1nc(N)c(C(N)=O)cc1C#N
inactive: dose: 87.0 mg/kg/injection, schedule: Q04DX003 (ip), vehicle: Klucel (hydroxypropylcellulose) (HPC) 97 % of control

CCCCCCCCCCNCCCCNCCCCCCCCCC
inactive: dose: 1.56 mg/kg/injection, schedule: Q01DX009 (ip), vehicle: Klucel (hydroxypropylcellulose) (HPC) 92 % of control | dose: 3.12 mg/kg/injection, schedule: Q01DX009 (ip), vehicle: Klucel (hydroxypropylcellulose) (HPC) 87 % of control | dose: 6.25 mg/kg/injection, schedule: Q01DX009 (ip), vehicle: Klucel (hydroxypropylcellulose) (HPC) 92 % of control and 93 % of control

CCOC(=O)C1(C(=O)OCC)CC(C)C(=O)N1c1ccccc1OC (configuration not stated)
inactive: dose: 100.0 mg/kg/injection, schedule: Q04DX002 (ip), vehicle: Klucel (hydroxypropylcellulose) (HPC) 100 % of control | dose: 200.0 mg/kg/injection, schedule: Q04DX002 (ip), vehicle: Klucel (hydroxypropylcellulose) (HPC) 89 % of control | dose: 400.0 mg/kg/injection, schedule: Q04DX002 (ip), vehicle: Klucel (hydroxypropylcellulose) (HPC) 100 % of control

C=CCCC[P+](c1ccccc1)(c1ccccc1)c1ccccc1
inactive: dose: 3.13 mg/kg/injection, schedule: Q01DX009 (ip), vehicle: saline 95 % of control | dose: 6.25 mg/kg/injection, schedule: Q01DX009 (ip), vehicle: saline 103 % of control | [1] 108 % of control | dose: 12.5 mg/kg/injection, schedule: Q01DX009 (ip), vehicle: saline 100 % of control | [2] 108 % of control | dose: 50.0 mg/kg/injection, schedule: Q01DX009 (ip), vehicle: saline 101 % of control

CCOC(=O)C[P+](c1ccc(OC)cc1)(c1ccc(OC)cc1)c1ccc(OC)cc1
inactive: dose: 30.0 mg/kg/injection, schedule: Q01DX001 (ip), vehicle: carboxymethylcellulose (CMC) 90 % of control

CN1CCN=C1c1ccc(NC(=O)c2ccc(C(=O)Nc3ccc(C4=NCCN4C)cc3)c([N+](=O)[O-])c2)cc1
inactive: dose: 1.5 mg/kg/injection, schedule: Q01DX Z (ip), vehicle: carboxymethylcellulose (CMC) 96 % of control | dose: 3.0 mg/kg/injection, schedule: Q01DX Z (ip), vehicle: carboxymethylcellulose (CMC) 101 % of control | dose: 6.0 mg/kg/injection, schedule: Q01DX Z (ip), vehicle: carboxymethylcellulose (CMC) 90 % of control

Cc1cc(OC(=O)c2ccc(N(C)C)cc2)ccc1[N+](=O)[O-]
inactive: [3] 95 % of control | [4] 96 % of control | [5] 94 % of control | [6] 91 % of control | [7] 97 % of control | [8] 95 % of control

CC(C)OB(OC(C)C)OC(C)C
inactive: [3] 103 % of control | [4] 104 % of control | [5] 103 % of control | [6] 95 % of control | [7] 102 % of control | [8] 100 % of control

ClC1(c2ccccc2)c2ccc(Br)cc2-c2cc(Br)ccc21
inactive: [3] 103 % of control | [4] 104 % of control | [5] 100 % of control | [6] 107 % of control | [7] 108 % of control | [8] 94 % of control

CN(CCO)C(=O)c1ccc([N+](=O)[O-])cc1
inactive: [4] 91 % of control | [6] 88 % of control | [8] 107 % of control

CN(C)c1ccc(C=Nc2ccc(Cl)cc2)cc1
inactive: dose: 100.0 mg/kg/injection, schedule: Q01DX001 (ip), vehicle: Klucel (hydroxypropylcellulose) (HPC) 91 % of control | [4] 93 % of control | dose: 200.0 mg/kg/injection, schedule: Q01DX001 (ip), vehicle: Klucel (hydroxypropylcellulose) (HPC) 93 % of control | [6] 91 % of control | dose: 400.0 mg/kg/injection, schedule: Q01DX001 (ip), vehicle: Klucel (hydroxypropylcellulose) (HPC) 90 % of control | [8] 91 % of control

CC(CCCO)C1CCC2C3CCC4CC5(CCC4(C)C3CCC12C)OCCO5 (configuration not stated)
inactive: dose: 100.0 mg/kg/injection, schedule: Q01DX009 (sc), vehicle: steriod suspending solution 104 % of control | dose: 200.0 mg/kg/injection, schedule: Q01DX009 (sc), vehicle: steriod suspending solution 92 % of control | dose: 400.0 mg/kg/injection, schedule: Q01DX009 (sc), vehicle: steriod suspending solution 94 % of control

NC(=S)N/N=C\c1nccc2ccsc12
inactive: dose: 100.0 mg/kg/injection, schedule: Q04DX002 (ip), vehicle: saline with Tween-80 113 % of control | dose: 200.0 mg/kg/injection, schedule: Q04DX002 (ip), vehicle: saline with Tween-80 92 % of control | dose: 400.0 mg/kg/injection, schedule: Q04DX002 (ip), vehicle: saline with Tween-80 103 % of control

CS(=O)(=O)OCCNCCOS(C)(=O)=O
inactive: dose: 15.0 mg/kg/injection, schedule: Q01DX001 (ip), vehicle: saline 104 % of control | dose: 30.0 mg/kg/injection, schedule: Q01DX001 (ip), vehicle: saline 113 % of control | dose: 60.0 mg/kg/injection, schedule: Q01DX001 (ip), vehicle: saline 106 % of control | dose: 75.0 mg/kg/injection, schedule: Q01DX001 (ip), vehicle: saline 93 % of control

O=C(Nc1ncccn1)C(F)(F)F
inactive: dose: 50.0 mg/kg/injection, schedule: Q01DX001 (ip), vehicle: saline 95 % of control | [9] 92 % of control | [10] 95 % of control | [11] 90 % of control

O=[N+]([O-])c1ccc(N=Nc2ccc3c(c2)-c2ccccc2/C3=C\c2cccc([N+](=O)[O-])c2)cc1
inactive: dose: 100.0 mg/kg/injection, schedule: Q01DX001 (ip), vehicle: carboxymethylcellulose (CMC) 93 % of control | dose: 200.0 mg/kg/injection, schedule: Q01DX001 (ip), vehicle: carboxymethylcellulose (CMC) 96 % of control | dose: 400.0 mg/kg/injection, schedule: Q01DX001 (ip), vehicle: carboxymethylcellulose (CMC) 98 % of control

CSc1nc([N+](=O)[O-])c2cnccn12
inactive: dose: 6.25 mg/kg/injection, schedule: Q01DX009 (ip), vehicle: saline with Tween-80 88 % of control | [1] 93 % of control | dose: 12.5 mg/kg/injection, schedule: Q04DX003 (ip), vehicle: saline with Tween-80 101 % of control | [2] 93 % of control | dose: 25.0 mg/kg/injection, schedule: Q04DX003 (ip), vehicle: saline with Tween-80 103 % of control | dose: 50.0 mg/kg/injection, schedule: Q01DX009 (ip), vehicle: saline with Tween-80 93 % of control

c1nc(SCC2CO2)c2ncn(CC3CO3)c2n1 (configuration not stated)
inactive: [9] 107 % of control | [10] 101 % of control | [11] 97 % of control

COC1=C(F)C(=O)C(OC)=C(F)C1=O
inactive: dose: 1.2 mg/kg/injection, schedule: Q01DX001 (ip), vehicle: alcohol 101 % of control | dose: 2.5 mg/kg/injection, schedule: Q01DX001 (ip), vehicle: alcohol 97 % of control | dose: 5.0 mg/kg/injection, schedule: Q01DX001 (ip), vehicle: alcohol 103 % of control

CCC(C(OC(C)=O)C(C)C)[N+](=O)[O-] (configuration not stated)
inactive: dose: 9.38 mg/kg/injection, schedule: Q01DX001 (ip), vehicle: other 104 % of control | dose: 18.75 mg/kg/injection, schedule: Q01DX001 (ip), vehicle: other 105 % of control

From PubChem BioAssay AID248 (DTP/NCI, 2004)
